In PubChem BioAssay (NCI):
Values joined by “and” are separate entries in the source; they are usually repeats but may differ in a detail not shown here. Equal values may be shown once.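 Compound exposure: 48 hours, 5 concentrations, 96-well plates. GI50 = concentration required for 50% inhibition of growth. TGI denotes the concentration required for complete inhibition of growth.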

Experiments:
Test in all cases: NCI tumour cell line growth inhibition, 48 h
DMS 273 small cell lung = tested on: DMS 273 small cell lung
DMS 114 small cell lung = tested on: DMS 114 small cell lung
P388 leukemia = tested on: P388 leukemia
P388/ADR leukemia = tested on: P388/ADR leukemia
U251 CNS = tested on: U251 CNS
XF 498 CNS = tested on: XF 498 CNS
SF-539 CNS = tested on: SF-539 CNS
SN12K1 renal = tested on: SN12K1 renal
RXF-631 renal = tested on: RXF-631 renal
786-0 renal = tested on: 786-0 renal
LXFL 529 NSCLC = tested on: LXFL 529 NSCLC
MDA-N = tested on: MDA-N

SMILES | TGI (DMS 273 small cell lung) | TGI (DMS 114 small cell lung) | TGI (P388 leukemia) | TGI (P388/ADR leukemia) | TGI (U251 CNS) | TGI (SF-539 CNS) | TGI (SN12K1 renal) | TGI (MDA-N) | also measured
O=c1c(-c2ccccc2)c[nH]c2cc([N+](=O)[O-])c(/C(Cl)=C/c3ccccc3)cc12 | > 38.7 µM | 19 µM | > 31.6 µM | > 45.3 µM | 24.4 µM | 27.7 µM | > 41.7 µM | – | TGI (XF 498 CNS): 23.7 µM
C[Si](C)(C)C#C[I+]c1ccccc1 | 44.5 µM | 39.7 µM | – | – | > 100 µM | 79.3 µM | – | – | TGI (RXF-631 renal): > 100 µM; TGI (786-0 renal): > 100 µM; TGI (XF 498 CNS): > 100 µM; TGI (LXFL 529 NSCLC): 95.2 µM
COc1cc(-c2ccc(-c3ccc(C(=N)N)s3)s2)cc(OC)c1OC | – | – | – | – | – | 3.02 µM | – | – | GI50 (SF-539 CNS): 1.58 µM
O=C(CCN1CCCC1)Nc1ccc2c(NCCCCc3ccccc3)c3ccccc3nc2c1 | – | – | – | – | – | 2.84 µM | – | – | GI50 (SF-539 CNS): 1.44 µM
Cc1c2cc[n+](C)cc2c(C)c2c1[nH]c1ccc(O)cc12 | > 78.6 µM | 69.6 µM | 38.7 µM | > 77.4 µM | 25 µM | 75.2 µM | > 82.7 µM | > 100 µM | –
CCOC(=O)c1c(NC(=S)NCc2ccccc2)sc2c1CCN(C)C2 | – | – | – | – | – | > 100 µM | – | > 100 µM | –
Cc1c2cc[n+](C)cc2c(COC2OC(CO)C(O)C2O)c2c3ccccc3n(C)c12 (stereo not given) | > 100 µM | > 100 µM | > 100 µM | > 100 µM | > 100 µM | > 100 µM | > 100 µM | – | TGI (XF 498 CNS): > 97.3 µM
NC(=O)c1cc2ccccc2c(N=Nc2ccccc2)c1O | – | – | – | – | 49.2 µM | – | – | > 100 µM | TGI (786-0 renal): > 100 µM
CC(=O)OC1CC2(O)C(CCC3(C)C(c4ccc(=O)oc4)CCC32O)C2(C)CCC(O)C=C12 (stereo not given) | 0.0714 µM and 0.0478 µM | 0.0164 µM | 245 µM | 261 µM | 0.151 µM and 0.109 µM | 0.0383 µM and 0.0414 µM | 0.119 µM and 0.393 µM | – | GI50 (DMS 273 small cell lung): 0.0375 µM; GI50 (P388 leukemia): 63.8 µM; GI50 (P388/ADR leukemia): 69.5 µM; GI50 (U251 CNS): 0.0375 µM; GI50 (XF 498 CNS): 0.0138 µM; TGI (XF 498 CNS): 0.026 µM and 0.0553 µM; GI50 (SF-539 CNS): 0.0375 µM; GI50 (SN12K1 renal): 0.0375 µM
N#Cc1ccc(Nc2nc3nc[nH]c3c(=O)[nH]2)cc1 | – | – | – | – | > 100 µM | > 100 µM | – | > 100 µM | TGI (786-0 renal): > 100 µM
CC(=O)O[C@H]1C(=O)[C@]2(C)[C@@H](OC(=O)OCC(O)CO)C[C@H]3OC[C@@]3(OC(C)=O)[C@H]2[C@H](OC(=O)c2ccccc2)[C@]2(O)C[C@H](OC(=O)[C@H](O)[C@@H](NC(=O)c3ccccc3)c3ccccc3)C(C)=C1C2(C)C (stereo not given in full) | – | – | – | – | 15.6 µM | < 0.01 µM | – | – | –
COc1cccc2c1C(=O)c1c(O)c3c(c(O)c1C2=O)C[C@@](O)(C(C)=O)C[C@@H]3OC1CC(N)C(O)C(C)O1 (stereo not given in full) | – | – | 0.383 µM | 9.87 µM | – | – | 0.215 µM | – | GI50 (RXF-631 renal): 0.212 µM; TGI (RXF-631 renal): 3.12 µM and 4.25 µM; GI50 (U251 CNS): < 0.0145 µM; TGI (LXFL 529 NSCLC): 1.48 µM and 1.36 µM and > 5.01 µM
CCP(=O)(CC)C(Cl)(Cl)C(=O)NC | – | – | – | – | > 100 µM | – | – | > 100 µM | –
CC(C)(C)CC(C)(C)Cc1ccc(OCCOCC[N+](C)(C)Cc2ccccc2)cc1 | – | – | – | – | 3.08 µM | 3.21 µM | – | – | GI50 (U251 CNS): 1.56 µM; GI50 (SF-539 CNS): 1.7 µM
